Test results published in patent US20060069132A1, “Azolecarboxamide herbicides” (priority 2004, published 2006).

Columns and labels:
[1] = tested on: smallflower umbrella sedge; assay: Test C flooded paddy test; format: in vivo, Cyperus difformis
barnyardgrass [2] = assay: Test B pre-/postemergence herbicide test; format: in vivo, Echinochloa crus-galli; settings: for Barnyardgrass plant response rating: postemergence, scale 0 (no effect) to 100 (complete control)
Method in brief: (§1)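 Flooded paddy rice and barnyardgrass were treated at the 2-leaf stage; upland plantings received compound either on sown seed or on 1- to 4-leaf seedlings. All were kept 13–15 days in a greenhouse and scored visually, 0–100, relative to untreated plants.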

wild oat = assay: Test B postemergence herbicide test; format: in vivo, Avena fatua; settings: postemergence
Method in brief: (§2)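 Formulated test chemicals went onto postemergence plants measuring 2 to 18 cm, at one to four leaves. For the paddy assay, species had reached two leaves. Scoring took place 13–15 days later by eye, relative to untreated plants, using 0 for no effect up to 100 for full control.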

velvetleaf = assay: Test B pre-/postemergence herbicide test; format: in vivo, Abutilon theophrasti; settings: for Velvetleaf plant response rating: postemergence
Method in brief: (§3)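 Response was scored visually 13 to 15 days after treatment against untreated greenhouse controls, 0 meaning no effect and 100 complete control. Formulations (solvent mixture plus surfactant) went onto soil after planting, onto foliage of 1- to 4-leaf plants, and onto 2-leaf plants in a flooded paddy set including rice and barnyardgrass.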

ducksalad [3] = assay: Test C flooded paddy test; format: in vivo, Heteranthera limosa
ducksalad [4] = assay: Test B flooded paddy test; format: in vivo, Heteranthera limosa; settings: 1000 g ai/ha, scale 0 to 100 (0 no effect, 100 complete control)
Method in brief: (§4)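 After treating 2-leaf paddy plants or 2–18 cm postemergence plants (1 to 4 leaves) with formulated chemical, researchers kept them in a greenhouse for 13–15 days. Effects were judged visually versus controls: 0 indicates none, 100 total control.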

rice [5] = assay: Test B flooded paddy test; format: in vivo, Oryza sativa; settings: 1000 g ai/ha, scale 0 to 100 (0 no effect, 100 complete control)
Method in brief: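 Postemergence plants were sprayed with formulated test chemicals at 2 to 18 cm height (1- to 4-leaf stage); paddy species were grown to the 2-leaf stage. After 13 to 15 days in a greenhouse, injury was rated visually against untreated controls on a 0–100 scale (0 = no effect, 100 = complete control).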

corn = assay: Test B pre-/postemergence herbicide test; format: in vivo, Zea mays; settings: for Corn plant response rating: postemergence
Method in brief: as §3

wheat = assay: Test B postemergence herbicide test; format: in vivo, Triticum aestivum; set-up: key to Wheat plant response rating: 0 = no effect, 100 = complete control; settings: postemergence
Method in brief: as §2

rice [6] = assay: Test C flooded paddy test; format: in vivo, Oryza sativa
Method in brief: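 Postemergence sprays applied to plants 2 to 18 cm tall (1- to 4-leaf stage); paddy species grown to 2-leaf stage under flooding. After 12 to 14 days in greenhouse, visual rating versus untreated controls on 0–100 scale (0 no effect, 100 complete control).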

barnyardgrass [7] = assay: Test C flooded paddy test; format: in vivo, Echinochloa crus-galli
Method in brief: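 Greenhouse test with a 12–14 day hold after application and visual comparison with controls. Emerged plants were 1- to 4-leaf stage (2–18 cm) when sprayed postemergence, and the paddy barnyardgrass was at 2 leaves under flooded conditions. 100 = complete control.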

lambsquarters = assay: Test B pre-/postemergence herbicide test; format: in vivo, Chenopodium album; settings: for Lambsquarters plant response rating: postemergence
Method in brief: as §3

morningglory = assay: Test B pre-/postemergence herbicide test; format: in vivo, Ipomoea coccinea; settings: for Morningglory plant response rating: postemergence
Method in brief: as §1

blackgrass = assay: Test B postemergence herbicide test; format: in vivo, Alopecurus myosuroides; settings: postemergence, visual rating, scale 0 (no effect) to 100 (complete control)
Method in brief: as §4

large crabgrass = assay: Test B pre-/postemergence herbicide test; format: in vivo, Digitaria sanguinalis; settings: for Crabgrass, Large plant response rating: postemergence
Method in brief: as §3

pigweed = assay: Test B pre-/postemergence herbicide test; format: in vivo, Amaranthus retroflexus; settings: for Pigweed plant response rating: postemergence
Method in brief: as §3

giant foxtail = assay: Test B pre-/postemergence herbicide test; format: in vivo, Setaria faberi; settings: for Foxtail, Giant plant response rating: postemergence
Method in brief: as §3

[8] = tested on: small flower umbrella sedge; assay: Test B flooded paddy test; format: in vivo, Cyperus difformis; settings: 1000 g ai/ha, scale 0 to 100 (0 no effect, 100 complete control)
Method in brief: as §4

barnyardgrass [9] = assay: Test B flooded paddy test; format: in vivo, Echinochloa crus-galli; settings: 1000 g ai/ha, scale 0 to 100 (0 no effect, 100 complete control)
Method in brief: as §4

rice [10] = assay: Test B pre-/postemergence herbicide test; format: in vivo, Oryza sativa; settings: 0 = no effect, 100 = complete control, preemergence
Method in brief: as §3

Surinam grass = assay: Test B pre-/postemergence herbicide test; format: in vivo, Urochloa decumbens; settings: for Surinam Grass plant response rating: postemergence
Method in brief: as §3

cocklebur = assay: Test B pre-/postemergence herbicide test; format: in vivo, Xanthium strumarium; settings: for Cocklebur plant response rating: postemergence, scale 0 (no effect) to 100 (complete control)
Method in brief: as §1

[11] = 125 g ai/ha, scale 0 to 100 (0 no effect, 100 complete control)
[12] = 250 g ai/ha, scale of 0 to 100, 0 is no effect, 100 is complete control
[13] = 500 g ai/ha, visual rating after 12 to 14 days, scale 0 to 100 (0 no effect, 100 complete control)
[14] = 125 g ai/ha, 0 = no effect, 100 = complete control, preemergence
[15] = 500 g ai/ha, visual rating, 0 = no effect, 100 = complete control, preemergence
[16] = 125 g ai/ha, visual rating, scale 0 (no effect) to 100 (complete control)
[17] = 500 g ai/ha, scale 0 to 100, 0 is no effect, 100 is complete control

`CCNC(=O)c1cc(NC(=O)c2cc(C(C)(C)C)nn2CC)c(F)cc1F` [Compound 252] was tested, and the “Sedge, Umbrella plant response rating” value ([1]; 62 g ai/ha, scale 0 to 100) was 0, the “Sedge, Umbrella plant response rating” value [1, 11] was 40 and the “Sedge, Umbrella plant response rating” value [1, 12] was 50. The “Plant response rating, Sedge, Umbrella” value [1, 13] was 75, the “Barnyardgrass plant response rating (0 to 100 scale)” value (barnyardgrass [2]; [14]) was 0 and the “Plant response rating, Barnyardgrass” value (barnyardgrass [2]; [15]) was 70. The “Barnyardgrass plant response rating” value (barnyardgrass [2]; 125 g ai/ha, visual rating) was 0, the “Barnyardgrass plant response rating” value (barnyardgrass [2]; 500 g ai/ha, visual rating) was 10 and the “Oat, Wild plant response rating” value (wild oat; [16]) was 20. For the same compound, the “Oat, Wild plant response rating” value (wild oat; [17]) was 20, the “Velvetleaf plant response rating (0 to 100 scale)” value (velvetleaf; [14]) was 0 and the “Plant response rating, Velvetleaf” value (velvetleaf; [15]) was 60. The “Velvetleaf plant response rating” value (velvetleaf; [16]) was 30, the “Velvetleaf plant response rating” value (velvetleaf; [17]) was 30 and the “Ducksalad plant response rating” value (ducksalad [3]; 62 g ai/ha, scale 0 to 100) was 0. For the same compound, the “Ducksalad plant response rating” value (ducksalad [3]; [11]) was 0, the “Ducksalad plant response rating” value (ducksalad [3]; [12]) was 15 and the “Plant response rating, Ducksalad” value (ducksalad [3]; [13]) was 80. The “Ducksalad plant response rating” value (ducksalad [4]) was 90, the “Rice plant response rating” value (rice [5]) was 80 and the “Corn plant response rating (0 to 100 scale)” value (corn; [14]) was 0. For the same compound, the “Plant response rating, Corn” value (corn; [15]) was 60, the “Corn plant response rating” value (corn; [16]) was 10 and the “Corn plant response rating” value (corn; [17]) was 10. The “Wheat plant response rating” value (wheat; [16]) was 20, the “Wheat plant response rating” value (wheat; [17]) was 20 and the “Rice plant response rating” value (rice [6]; 62 g ai/ha, scale 0 to 100) was 0. For the same compound, the “Rice plant response rating” value (rice [6]; [11]) was 45, the “Rice plant response rating” value (rice [6]; [12]) was 55 and the “Plant response rating, Rice” value (rice [6]; [13]) was 60. The “Barnyardgrass plant response rating” value (barnyardgrass [7]; 62 g ai/ha, scale 0 to 100 (0 no effect, 100 complete control)) was 0, the “Barnyardgrass plant response rating” value (barnyardgrass [7]; [11]) was 0 and the “Barnyardgrass plant response rating” value (barnyardgrass [7]; [12]) was 15. The “Plant response rating, Barnyardgrass” value (barnyardgrass [7]; [13]) was 45, the “Plant response rating, Lambsquarters” value (lambsquarters; [15]) was 100 and the “Lambsquarters plant response rating” value (lambsquarters; [16]) was 30. For the same compound, the “Lambsquarters plant response rating” value (lambsquarters; [17]) was 30, the “Morningglory plant response rating (0 to 100 scale)” value (morningglory; [14]) was 0 and the “Plant response rating, Morningglory” value (morningglory; [15]) was 0. For the same compound, the “Morningglory plant response rating” value (morningglory; [16]) was 20, the “Morningglory plant response rating” value (morningglory; [17]) was 20 and the “Blackgrass plant response rating” value (blackgrass; 125 g ai/ha) was 10. The “Blackgrass plant response rating” value (blackgrass; 500 g ai/ha) was 20, the “Crabgrass, Large plant response rating (0 to 100 scale)” value (large crabgrass; [14]) was 80 and the “Plant response rating, Crabgrass, Large” value (large crabgrass; [15]) was 100. The “Crabgrass, Large plant response rating” value (large crabgrass; [16]) was 0, the “Crabgrass, Large plant response rating” value (large crabgrass; [17]) was 10 and the “Plant response rating, Pigweed” value (pigweed; [15]) was 100. For the same compound, the “Pigweed plant response rating” value (pigweed; [16]) was 20, the “Pigweed plant response rating” value (pigweed; [17]) was 30 and the “Foxtail, Giant plant response rating (0 to 100 scale)” value (giant foxtail; [14]) was 10. For the same compound, the “Plant response rating, Foxtail, Giant” value (giant foxtail; [15]) was 90, the “Foxtail, Giant plant response rating” value (giant foxtail; [16]) was 20 and the “Foxtail, Giant plant response rating” value (giant foxtail; [17]) was 30. The “Sedge, Umbrella plant response rating” value [8] was 80, the “Barnyardgrass plant response rating” value (barnyardgrass [9]) was 70 and the “Rice plant response rating (0 to 100 scale)” value (rice [10]; 125 g ai/ha) was 30. The “Plant response rating, Rice” value (rice [10]; 500 g ai/ha, visual rating) was 50, the “Surinam Grass plant response rating (0 to 100 scale)” value (Surinam grass; [14]) was 10 and the “Plant response rating, Surinam Grass” value (Surinam grass; [15]) was 70. The “Surinam Grass plant response rating” value (Surinam grass; [16]) was 10, the “Surinam Grass plant response rating” value (Surinam grass; [17]) was 20 and the “Cocklebur plant response rating (0 to 100 scale)” value (cocklebur; [14]) was 0. For the same compound, the “Plant response rating, Cocklebur” value (cocklebur; [15]) was 0, the “Cocklebur plant response rating” value (cocklebur; 125 g ai/ha, visual rating) was 20 and the “Cocklebur plant response rating” value (cocklebur; 500 g ai/ha, visual rating) was 40.
